From patent US9422303B2, “Formulations of water-insoluble chemical compounds and methods of using a formulation of compound FL118 for cancer therapy” (Health Research, Inc., priority 2010, dated 2016)

How the values were obtained:
[1] = Solubility testing in DMSO, ethanol, water
human tumor xenografts = test: Antitumor activity/toxicity in human tumor mouse models (general statements); format: in vivo; details: example: SCID mice, primary colon 11124 and 14528, weekly×4 (FIG. 15)
Procedure: (§1) Six to 12-week-old female athymic nude mice (nu/nu, body weight 20-25 g) were purchased from Charles River Laboratories International, Inc. (Wilmington, Mass.) or Harlan Sprague Dawley Inc. (Indianapolis, Ind.). Six to 12-week-old female SCID mice were purchased from Roswell Animal facility (DLAR). Mice were housed at 5 mice per cage with water and food ad libitum. All animal experiments are performed in accordance with our IACUC-approved animal protocol.
Human tumor xenografts were initially established by injecting s.c 1×10^6 cultured cancer cells. The xenografts were then passed several generations by transplanting 40-50 mg non-necrotic tumor tissues via a trocar from the passage tumors. […]
(§2) Two axes (mm) of a tumor (L, longest axis; W, shortest axis) were measured with a Vernier caliper. […]
(§3) Antitumor activity was assessed by maximum tumor growth inhibition (MTGI), which is the mean tumor weight difference between treated group (MTWTG) and untreated control group (MTWCG) at the same time. The calculated formula is “MTGI=(MTWTG−MTWCG)÷MTWCG×100%”. […] Tumor response was expressed as 1) partial tumor response (PR) when tumor weight was reduced at least 50% initial tumor size on Day 0 and 2) complete tumor response (CR) which was defined as inability to detect tumor via palpitation at the initial tumor-transplanted site. […]

[2] = test system: human 17073 primary head & neck xenografts; test: Antitumor activity and toxicity in SCID mice bearing human 17073 primary head & neck xenografts; format: in vivo; details: at MTD
Excerpt: FIG. 2 Comparison of antitumor activity and toxicity (body weight loss) of FL118 with irinotecan in SCID mice bearing human 17073 primary head & neck xenografts: A and B. Antitumor activity and toxicity of FL118 and irinotecan against 17073 tumors. C, D and E. Individual 17073 tumor in response to FL118 and irinotecan. The treatment schedule was weekly×4 as indicated by arrows. The doses for FL118 and irinotecan were their MTD in the weekly×4 schedule.
(§4) Human tumor xenografts were initially established by injecting s.c 1×10^6 cultured cancer cells. The xenografts were then passed several generations by transplanting 40-50 mg non-necrotic tumor tissues via a trocar from the passage tumors. Human primary tumors were initially obtained from cancer patients at Roswell Park Cancer Institute and established in SCID mice. Human tumor xenografts used in this study include human head & neck squamous cell carcinoma FaDu, human primary head & neck tumor 17073, human ileocecal adenocarcinoma HCT-8, human colon cancer SW620 and human primary colon cancer 11124 and 14528. Treatment was initiated 7 days after tumor transplantation when the tumor reaches 200-250 mg, at which the treatment was designated as Day 0. All cancer cells used for tumor establishment were tested for mycoplasma free. The transplantable tumor has similar histological profile of cultured cells.
Two axes (mm) of a tumor (L, longest axis; W, shortest axis) were measured with a Vernier caliper. Tumor weight (mg) was estimated using a formula of “tumor weight=½ (L×W^2)”. […]
as §3

[3] = irinotecan, stated without source; cited from earlier work
[4] = test system: human HCT-8 colon tumor xenografts; test: Antitumor activity in nude mice bearing human HCT-8 colon tumor xenografts; format: in vivo
Procedure: as §1
FL118 was first dissolved in DMSO at a concentration of 1 mg/ml, and further diluted in a fresh Tween-80/saline solution. The final work solution consists of FL118 (0.05 mg/ml), 75% saline (V/V), 20% Tween-80 (V/V) and 5% DMSO (V/V). Control solution (placebo or vehicle) is 75% saline, 20% Tween-80 and 5% DMSO without FL118. Other FDA-approved anticancer drugs used in this invention for a comparison were used clinical formulations from the corresponding manufactures.
as §4
The following schedules were used: 1) i.p. daily×2: once a day for consecutive 2 days; 2) i.p. daily×3: once a day for consecutive 3 days; 3) daily×5: once a day for consecutive 5 days (i.p. or p.o.); 4) i.p.×3 (day 0, 2, 4): 3 times on day 0, 2, and 4; 5) i.p. 2 days/week×¾: 2 times a week for 3 or 4 consecutive weeks; 6) weekly×4: once a week for 4 consecutive weeks (i.p. or p.o.); 7) i.p. biweekly×4: once every two weeks for 8 weeks; 8) 2 days/week×4: give 2 times a week for 4 weeks; and 9) i.p.×1: one time drug i.p. injection on Day 0.
Two axes (mm) of a tumor (L, longest axis; W, shortest axis) were measured with a Vernier caliper. Tumor weight (mg) was estimated using a formula of “tumor weight=½ (L×W^2)”. Tumor measurement was taken daily for the first two weeks and/or during the FL118 treatment period (with the exception of weekend) and then three times a week for the following two weeks of post therapy and twice a week thereafter.
Antitumor activity was assessed by maximum tumor growth inhibition (MTGI), which is the mean tumor weight difference between treated group (MTWTG) and untreated control group (MTWCG) at the same time. The calculated formula is “MTGI=(MTWTG−MTWCG)÷MTWCG×100%”. The tumor doubling time (TDT) was defined as the mean time for the tumor reaching twice its initial weight from the time beginning the treatment (Day 0). Tumor response was expressed as 1) partial tumor response (PR) when tumor weight was reduced at least 50% initial tumor size on Day 0 and 2) complete tumor response (CR) which was defined as inability to detect tumor via palpitation at the initial tumor-transplanted site. […]

[5] = test system: human FaDu head and neck tumor xenografts; test: Antitumor activity in nude mice bearing human FaDu head and neck tumor xenografts; format: in vivo; details: one-time i.p. injection at about MTD (FIG. 1)
Procedure: as §1
FL118 was first dissolved in DMSO at a concentration of 1 mg/ml, and further diluted in a fresh Tween-80/saline solution. The final work solution consists of FL118 (0.05 mg/ml), 75% saline (V/V), 20% Tween-80 (V/V) and 5% DMSO (V/V). […]
as §2, §3

Row | SMILES | solubility in ethanol [1] | antitumor activity, comparison of FL118, FL113 and irinotecan (human tumor xenografts) | body weight loss (toxicity) ([2]; weekly×4) | tumor relapse after complete response ([2]; weekly×4) | mice with complete response ([2]; weekly×4, 5 mice per group) [%] | MTD [3] [mg/kg] | CR ([4]; 100 mg/kg, i.p. weekly × 4) [%] | MTGI ([4]; 100 mg/kg, i.p. weekly × 4) [%] | PR ([4]; 100 mg/kg, i.p. weekly × 4) [%] | TDT ([4]; 100 mg/kg, i.p. weekly × 4) [days] | antitumor activity compared with FDA-approved drugs ([4]; one-time i.p. injection at about MTD (FIG. 1)) | antitumor activity compared with FDA-approved drugs [5]
1 | CCC1(O)C(=O)OCc2c1cc1n(c2=O)Cc2cc3cc4c(cc3nc2-1)OCO4 (racemic) [FL113, 10H,12H-1,3-Dioxolo[4,5-g]pyrano[3′,4′:6,7]indolizino[1,2-b]quinoline-8,11(7H,10H)-dione, 7-ethyl-7-hydroxy-, (+-)] | poorly dissolve in ethanol | better than irinotecan in most cases | – | – | – | – | – | – | – | – | – | –
2 | CCc1c2c(nc3ccc(OC(=O)N4CCC(N5CCCCC5)CC4)cc13)-c1cc3c(c(=O)n1C2)COC(=O)[C@]3(O)CC [Irinotecan, irinotecan] | – | – | accumulated body weight loss | rapid relapse | 40 | 100 to 200 | 0 | 94.1 ± 3.6 | 60 | 32.7 ± 11.5 | second most effective compound | second most effective compound
